Source: ChEMBL document CHEMBL5729586, “Inhibitors of LRRK2 kinase” (2023)

Target: Leucine-rich repeat serine/threonine-protein kinase 2 (Homo sapiens, UniProt Q5S007)
Test: LRRK2 Enzymatic Assay: LRRKtide substrate (peptide sequence RLGRDKYKTLRQIRQ, derived from human ezrin [amino acids 561-573], moesin [amino acids 539-553] and radixin [amino acids 558-570], obtained from SignalChem, catalogue #L10-58, reconstituted in 20 mM Tris-HCl at pH 7.5 to a final concentration of 1 mg/mL, assay concentration 20 μM) and recombinant human LRRK2 (catalytic domain only [amino acids 970-2527], GST-tagged, expressed in insect cells, obtained from ThermoFisher Scientific, catalogue #PV4874, 0.35 mg/mL, assay concentration 30 nM) were mixed in assay buffer (20 mM Hepes pH 7.5, 10 mM MgCl, 1 mM EGTA, 0.02% Brij35, 0.02 mg/ml BSA, 0.1 mM NaVO, 2 mM DTT, 1% DMSO). Compounds of interest (in DMSO, serial 3-fold dilution from 10 μM to 0.5 nM) or control (1% DMSO) were dispensed into the kinase reaction mixture by Acoustic technology (Echo550; nanoliter range). After incubation at room temperature for 20 minutes, the kinase reaction was initiated by addition of [P]-ATP (Specific activity 10 μCi/μl) and the mixture was incubated at room temperature for 2 hours. The reaction was then stopped by spotting the reaction mixture on strips of phosphocellulose P81 paper. Following washing, the radioactivity of the P81 paper was measured and kinase activity data were expressed as the percent remaining kinase activity in test samples compared to vehicle (dimethyl sulfoxide) reactions.

Sequence of Leucine-rich repeat serine/threonine-protein kinase 2 (Q5S007 whole entry, the tested form may be a part): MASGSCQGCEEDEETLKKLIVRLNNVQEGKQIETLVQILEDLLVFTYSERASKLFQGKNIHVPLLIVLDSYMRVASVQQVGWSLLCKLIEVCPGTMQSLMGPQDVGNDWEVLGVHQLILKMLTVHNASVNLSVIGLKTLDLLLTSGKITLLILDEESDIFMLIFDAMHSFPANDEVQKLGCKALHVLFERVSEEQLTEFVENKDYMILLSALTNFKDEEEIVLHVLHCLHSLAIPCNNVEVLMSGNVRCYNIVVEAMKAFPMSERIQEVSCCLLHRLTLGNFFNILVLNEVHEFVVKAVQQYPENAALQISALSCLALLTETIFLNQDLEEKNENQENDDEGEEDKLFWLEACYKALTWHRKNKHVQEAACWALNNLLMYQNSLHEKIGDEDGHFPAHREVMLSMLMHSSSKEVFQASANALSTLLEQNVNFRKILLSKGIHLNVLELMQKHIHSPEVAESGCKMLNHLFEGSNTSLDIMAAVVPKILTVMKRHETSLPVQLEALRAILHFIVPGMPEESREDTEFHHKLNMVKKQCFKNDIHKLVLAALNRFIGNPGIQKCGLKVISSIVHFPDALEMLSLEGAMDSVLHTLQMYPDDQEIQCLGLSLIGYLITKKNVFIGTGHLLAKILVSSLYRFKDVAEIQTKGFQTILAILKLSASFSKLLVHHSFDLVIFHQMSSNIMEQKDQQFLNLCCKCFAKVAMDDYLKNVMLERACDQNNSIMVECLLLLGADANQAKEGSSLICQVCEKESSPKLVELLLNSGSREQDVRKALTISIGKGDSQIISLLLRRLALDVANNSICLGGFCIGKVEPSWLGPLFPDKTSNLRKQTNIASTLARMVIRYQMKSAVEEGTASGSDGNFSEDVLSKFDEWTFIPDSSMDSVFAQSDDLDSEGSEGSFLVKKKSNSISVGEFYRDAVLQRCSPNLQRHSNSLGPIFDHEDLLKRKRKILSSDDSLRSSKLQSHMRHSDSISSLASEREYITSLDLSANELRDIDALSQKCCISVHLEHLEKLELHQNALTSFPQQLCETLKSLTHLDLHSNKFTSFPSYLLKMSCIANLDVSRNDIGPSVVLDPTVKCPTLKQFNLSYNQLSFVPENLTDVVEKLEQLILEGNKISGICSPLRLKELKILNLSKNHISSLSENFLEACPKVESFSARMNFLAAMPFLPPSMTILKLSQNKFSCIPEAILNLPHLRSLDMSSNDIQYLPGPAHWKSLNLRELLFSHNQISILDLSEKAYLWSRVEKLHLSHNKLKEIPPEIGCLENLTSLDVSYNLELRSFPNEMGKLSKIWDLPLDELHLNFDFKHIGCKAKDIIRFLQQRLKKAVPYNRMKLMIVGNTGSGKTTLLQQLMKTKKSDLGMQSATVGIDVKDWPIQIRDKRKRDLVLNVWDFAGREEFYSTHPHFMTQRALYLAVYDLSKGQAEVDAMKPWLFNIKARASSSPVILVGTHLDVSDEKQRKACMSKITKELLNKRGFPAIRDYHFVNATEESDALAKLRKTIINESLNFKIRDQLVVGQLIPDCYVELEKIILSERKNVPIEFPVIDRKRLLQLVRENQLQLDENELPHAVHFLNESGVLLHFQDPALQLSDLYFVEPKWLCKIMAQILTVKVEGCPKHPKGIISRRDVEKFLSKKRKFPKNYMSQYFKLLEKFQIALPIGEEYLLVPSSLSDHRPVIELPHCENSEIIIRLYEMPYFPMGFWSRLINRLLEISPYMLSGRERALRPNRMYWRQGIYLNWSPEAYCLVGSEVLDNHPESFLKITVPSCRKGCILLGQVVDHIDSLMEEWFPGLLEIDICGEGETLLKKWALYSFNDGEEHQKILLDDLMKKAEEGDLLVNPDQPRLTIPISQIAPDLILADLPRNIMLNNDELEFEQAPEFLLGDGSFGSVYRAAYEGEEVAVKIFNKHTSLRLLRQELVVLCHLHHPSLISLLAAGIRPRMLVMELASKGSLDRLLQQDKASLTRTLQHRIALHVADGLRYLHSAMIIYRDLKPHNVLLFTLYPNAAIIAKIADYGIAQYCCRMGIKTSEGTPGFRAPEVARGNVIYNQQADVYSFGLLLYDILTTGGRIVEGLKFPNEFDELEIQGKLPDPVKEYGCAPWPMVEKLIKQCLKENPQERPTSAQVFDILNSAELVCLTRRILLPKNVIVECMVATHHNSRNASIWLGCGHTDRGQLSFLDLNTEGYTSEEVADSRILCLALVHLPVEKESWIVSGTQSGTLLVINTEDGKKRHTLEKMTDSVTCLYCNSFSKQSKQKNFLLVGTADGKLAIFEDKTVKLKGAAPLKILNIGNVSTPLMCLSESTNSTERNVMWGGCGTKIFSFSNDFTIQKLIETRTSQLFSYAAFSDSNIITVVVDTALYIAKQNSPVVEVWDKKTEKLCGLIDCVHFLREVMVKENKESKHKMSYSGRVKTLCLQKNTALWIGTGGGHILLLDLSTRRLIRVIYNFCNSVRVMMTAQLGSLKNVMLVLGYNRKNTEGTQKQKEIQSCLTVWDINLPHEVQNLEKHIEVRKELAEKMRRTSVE

Compound | IC50
CC(N[C@H]1CC[C@H](COc2ccnc(Nc3ccc(N4CCOCC4)cc3)n2)CC1)C(F)(F)F (stereo partly drawn) | > 400 nM
Cc1nn(C(C)(C)C#N)cc1Nc1ncc(F)c(OCC2CCNCC2(F)F)n1 (stereo not drawn) | < 50 nM
FC(F)CN[C@H]1CC[C@H](COc2nc(Nc3ccc(N4CCOCC4)cc3)ncc2Cl)CC1 | < 50 nM
CC(=O)N[C@H]1CC[C@H](COc2nc(Nc3ccc(N4C[C@@H](C)O[C@@H](C)C4)cc3)ncc2C)CC1 | < 50 nM
CC(=O)N[C@H]1CC[C@@H](COc2nc(Nc3ccc(N4C[C@@H](C)O[C@@H](C)C4)cc3)ncc2F)C1 | < 50 nM

Continued, values first:

IC50 | Compound
< 50 nM | CN[C@H]1CC[C@H](COc2nc(Nc3cnn(C(C)C)c3)ncc2Cl)CC1
< 50 nM | CC(=O)N[C@H]1CC[C@H](COc2nc(Nc3cnn(CCO)c3)ncc2F)CC1
< 50 nM | CN[C@H]1CC[C@H](COc2nc(Nc3cn(C(C)(C)C#N)nc3C)ncc2C2CC2)CC1
